Experimental data: US11382907B2, “Methods and compositions for treating aging-associated impairments using CCR3-inhibitors” (Alkahest, Inc., priority 2017, dated 2022)
“Also recorded” adds a separate entry of the source.

Columns and labels:
[1] = Tissue distribution of [14C]-radiolabeled Compound 1 (LSC, whole body autoradiography); format: in vivo, C57BL/6JOlaHsd mice; conditions: 10 mg/kg oral, [14C]-label; 1, 24, 168 hours
Description: The distribution of Compound 1 in mouse tissues was determined after oral administration of which was [^14C]-radiolabeled (“Labeled Compound”) to male pigmented C57BL/6JOlaHsd mice (Harlan Labs, BV). The Labeled Compound was administered at 10 mg/kg of body weight, corresponding to 17 μmol/kg. One animal was sacrificed after 1, 24, and 168 hours post-administration. Blood, plasma, and eye radioactivity concentrations were measured using liquid scintillation counting (LSC). Tissue and organ concentrations were determined by whole body autoradiography technique (QWBA). […]
The following sections were taken at different levels through the embedded animal, and whole body sections selected at 5-7 levels in order to allow for quantitative evaluation of radioactivity: adrenal glands; blood; bone marrow; brain; eye (lens); epididymis; fat (white and brown); Harderian gland; heart; kidneys; liver; lung; muscle; pituitary; pancreas; prostate, spinal cord; spleen salivary gland; skin; testis; thyroid; thymus; uveal tract. […]
FIG. 7 depicts a chart of values reporting the area under the curve (AUC) for all three time points, and quantifies each tissue's exposure to the Labeled POI after administration of the compound.

[2] = test system: inflammatory cytokines TNFa, IL6, IL1beta, IL5, IL17; test: Luminex assay of inflammatory cytokines in plasma of aged mice; format: in vivo, C57Bl/6 mice; conditions: 23-month-old mice, 30 mg/kg SQ BID 21 days
Description: Panels of circulating cytokines from mouse plasma were analyzed by Luminex. Luminex Assay Service performed by Eve Technologies (Calgary, Alberta, Canada).
23-month-old C57Bl/6 mice were dosed with either vehicle control or Compound 1 subcutaneously twice daily for 21 days. Three weeks later, mice were subjected to behavior testing, and sacrificed the day following the last behavior test.
Treatment Groups: • Treatment Group 1b, Vehicle treatment: Aged C57Bl/6 mice (n=9), aged 23 months, received twice daily (BID) subcutaneous (SQ) treatment of vehicle solution for 21 days. • Treatment Group 4, Compound 1 treatment: Aged C57Bl/6 mice (n=17), aged 23 months, received twice daily (BID) subcutaneous (SQ) treatment of Compound 1, 30 mg/kg, for 21 days.

[3] = test system: twenty-four-month-old C57 mice; test: Rotarod test for motor coordination in aged mice; format: in vivo; conditions: 4 weeks continuous infusion by osmotic pump
Description: The mice were trained in the rotarod for 3 trials up to 100 seconds each, the rotarod being a test of motor coordination. Success or failure was recorded on the last trial, with success defined by a latency to fall of >90 seconds. A binomial test was conducted to compare success rates between control and compound-treated mice.
Twenty-four-month-old C57 mice were treated for 4 weeks with continuous infusion of Compound 1 or vehicle by Alzet osmotic pump, which were implanted to continuously deliver the two treatments.
Treatment Groups: • Treatment Group 1, Old Controls: Aged C57BL/6 mice (n=15), aged 23 months, received infusion of vehicle by Alzet mini-pump, model 2002 (0.5 uL/hr), for four weeks with one replacement. • Treatment Group 2, Compound 1 (dose 2) in Old: Aged C57BL/6 mice (n=15), aged 23 months, received infusion of ˜50 mg/ml Compound 1 by Alzet mini-pump, model 2002 (0.5 uL/hr), for four weeks with one replacement.

## Cc1cc(C(=O)N(C)C)cc(NC(=O)[C@H]2CCC(=O)N2C2CCN(Cc3ccc(Cl)c(C)c3)CC2)n1 [Compound 1]
[1]
  crossing of the blood-brain barrier (tissue AUC of radioactivity): does not cross the blood-brain barrier (BBB) at significant levels
[2]
  plasma IL1beta level: strong trends in decrease; also recorded: trend lower
  plasma IL5 level: strong trends in decrease; also recorded: trend lower
  plasma IL6 level: strong trends in decrease; also recorded: trend lower
  plasma IL17 level: strong trends in decrease; also recorded: trend lower
  plasma TNFa level: strong trends in decrease; also recorded: trend lower
[3]; control 20%
  proportion of mice able to stay on the rod for longer than 90 seconds: 47%
[3]; success = latency to fall >90 seconds
  Rotarod success versus vehicle (binomial test): succeeded more than vehicle-treated mice
